The values that follow come from US4988678A, “Combinations of FU and BVU as anti-adenocarcinoma agents” (priority 1987, dated 1991).

By LD50 is commonly meant the dose at which mortality reaches 50%.

The conditions of series [1]: human body, cited from earlier work.
Another series relates to varicella zoster virus. As to conditions: infections caused by varicella zoster virus; cited from earlier work.
Series [2] concerns herpes simplex virus type 1. As to conditions: infections caused by herpes simplex virus type 1; cited from earlier work.
In the next series the test system is Epstein-Barr virus. To be noted: infections caused by Epstein-Barr virus; cited from earlier work.
The subject of the next series is replication of viruses. As to conditions: BVU as such; cited from earlier work.
The subject of a further series is adenocarcinoma 755. Put plainly: Antitumor activity against subcutaneous adenocarcinoma 755 in BDF1 mice, oral FU or FU + BVDU (Example 1). To be noted: for T/C (percent tumor weight with regard to control) / tumor weight, Mean ± SD: p.o. daily, 5 days, day 12. The method, then:
Groups of 6 male BDF1 -mice having a body weight of 21 to 23 g, were subcutaneously inoculated on day 0 with tumor cells of the type adenocarcinoma 755 at a dose of 5=10^5 cells per mouse. Thereupon, the compound FU (or a combination of FU and BVDU) was perorally administered in a predetermined daily dose during 5 consecutive days, starting 24 hours after the inoculation with tumor cells. On day 12, the tumor weight was determined and compared with the tumor weight in a non-treated control group.

The nature of series [3]: Toxicity / deaths of mice in Example 1. Type of series: in vivo, male BDF1 mice.
The conditions of series [4]: cited from earlier work.
The mark [5] stands for this setting: FU 30 mg/kg, p.o. daily, 5 days.

Take `O=c1[nH]c(=O)n([C@H]2C[C@H](O)[C@@H](CO)O2)cc1/C=C/Br` [BVDU, (E)-5-(2-bromovinyl)-2'-deoxyuridine]: the “conversion to BVU” value in series [1] is “rapidly converted”. The antiviral activity entry (in the series on varicella zoster virus; in series [2]; in the series with Epstein-Barr virus) was “active” in each case.
On to `O=c1[nH]cc(/C=C/Br)c(=O)[nH]1` [BVU, 5-(2-bromovinyl)uracil], for which, in series [1] (after conversion from BVDU), the “presence in the blood stream” value is “remains present in the blood stream for a relatively long period”. The “activity against replication of viruses” value in the series with replication of viruses is “inactive”.
`O=c1[nH]c(=O)n(C2CCCO2)cc1F` (stereo not shown) [FT, N1-(2'-tetrahydrofuryl)-5-fluorouracil]: in series [1], the “conversion to FU” value is on record as “converted slowly to FU”.
As to `O=c1[nH]cc(F)c(=O)[nH]1` [FU, 5-fluorouracil], the “T/C (percent tumor weight with regard to control)” value with adenocarcinoma 755 (FU 5 mg/kg) is 122%; in the series on adenocarcinoma 755 (FU 10 mg/kg), 85%; in the series on adenocarcinoma 755 (FU 20 mg/kg), 32%. Further, the results for the “tumor weight, Mean ± SD” value in the series with adenocarcinoma 755 (FU 5 mg/kg), with adenocarcinoma 755 (FU 10 mg/kg) and in the series with adenocarcinoma 755 (FU 20 mg/kg) were 2523 ± 389 mg, 1759 ± 726 mg and 675 ± 355 mg, respectively. The “therapeutic index (ratio of LD50 to ED50)” value with adenocarcinoma 755 (FU used alone) amounted to 2. Moreover, in the series with adenocarcinoma 755 (Mus musculus, po, 288 h, read-out: ED50 (dose causing a 50% reduction of T/C)), the ED50 was found to be 15 mg/kg. In addition, in series [3] (setting [5]), the “died (animals of group)” value is 3/6. The “toxicity (in words)” value in series [3] (setting [5]) is “Toxic”. Also, the LD50 in series [3] (mouse, in vivo, po, FU used alone, from the Table (doses in mg/kg), read-out: LD50 (50% lethal dose)) was 30 mg/kg. The “degradation in the liver” value in series [4] is given as “degraded rather rapidly”.
